How the values were obtained:
[1] = Effect on cAMP accumulation in non-TGR5 expressing HEK293-A cells transfected with EPAC-based FRET biosensor at 30 uM incubated for 10 mins in presence of IBMX and roflumilast by fluorescence based photometry relative to control; format: functional, Homo sapiens
[2] = Effect on CRE-luciferase activity in TGR5 non-expressing HEK293-A cells transfected with EPAC-based FRET biosensor assessed as fold activation at 30 uM incubated for 18 hrs by spectrophotometric analysis relative to control; format: functional, Homo sapiens
[3] = molecular target: T1, G-protein coupled bile acid receptor 1 (Homo sapiens) (UniProt Q8TDU6); assay: (§1) Agonist activity at human TGR5 expressed in HEK293-A cells co-transfected with EPAC-based FRET biosensor incubated for 18 hrs by CRE-luciferase reporter gene assay; format: functional, cell-based; conditions: filed as agonist
T1 sequence (whole entry): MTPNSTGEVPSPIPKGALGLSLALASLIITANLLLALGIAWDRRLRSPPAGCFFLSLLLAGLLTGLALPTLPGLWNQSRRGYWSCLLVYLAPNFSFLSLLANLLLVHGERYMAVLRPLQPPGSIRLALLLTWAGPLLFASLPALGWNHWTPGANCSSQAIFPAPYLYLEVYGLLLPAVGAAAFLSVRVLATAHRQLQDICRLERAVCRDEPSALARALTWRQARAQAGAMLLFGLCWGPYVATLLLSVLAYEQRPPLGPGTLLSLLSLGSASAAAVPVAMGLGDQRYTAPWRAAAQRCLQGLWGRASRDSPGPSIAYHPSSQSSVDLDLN

[4] = molecular target: T2, G-protein coupled bile acid receptor 1 (Homo sapiens, UniProt Q8TDU6); assay: Agonist activity at human TGR5 expressed in HEK293-A cells co-transfected with EPAC-based FRET biosensor assessed as increase in cAMP accumulation incubated for 10 mins by spectrophotometry; format: functional, cell-based
T2 sequence (Q8TDU6 whole entry): T1 sequence (whole entry)

[5] = molecular target: T2, G-protein coupled bile acid receptor 1; assay: as §1; format: functional, cell-based

Row | SMILES | Activity [1] [%] | fold change (FC) [2] | Activity [3] | EC50 [4] [µM] | EC50 [5] [µM]
1 | c1ccc(-n2cccc2CNC2CCCN(C3Cc4ccccc4C3)C2)nc1 (stereo not drawn) | 104 | 1.44 |  |  | 
2 | CO[C@@H](CNC(=O)CCc1cc2cc(Br)ccc2s1)Cc1ccccc1 | 106.4 | 0.75 | Dose-Dependent Effect |  | 
3 | Cc1cc(S(=O)(=O)NCCn2ccnc2C2CC2)c(Cl)cc1Cl | 103.9 | 0.96 |  |  | 
4 | CC(C)c1ccccc1OCCC(=O)NC[C@@H]1Cc2ccccc21 | 107.1 | 0.57 | Dose-Dependent Effect |  | 
5 | CC1(C)c2ccccc2CCN1CC(=O)NC[C@@H]1Cc2ccccc2O1 | 103.7 | 0.82 | Dose-Dependent Effect | 30 | 19
6 | Cc1ccc(CCCNC(=O)NCc2cn3c(C)cccc3n2)c(C)c1 |  | 0.87 |  |  | 
7 | c1cc(CNC2CC2)cc(-c2cccc3cccnc23)c1 | 105.3 | 1.22 |  |  | 
